# Results as given in PubChem BioAssay (NCI).
#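 96-well plates; 48 h exposure; 5 concentrations. Endpoints by linear interpolation between flanking doses. Not reached: highest tested concentration assigned. TGI is the concentration that stops growth completely.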
# Test system: 786-0 renal
# Assay: growth of human tumour cells (NCI), 48 h
row,Compound,TGI
1,O=C(/C=C/c1ccccc1)C[C@@H](O)C[C@@H]1CC=CC(=O)O1,12 µM
2,Cc1ccc(/C=C/C(=O)c2cccc3ccccc23)cc1,28.2 µM
3,C=CC[C@H](C[C@H](C[C@H](C[C@H](C[C@H](C[C@H](C[C@H](C[C@H](C[C@H](C[C@H](CCCCC)OC)OC)OC)OC)OC)OC)OC)OC)OC)OC,> 100 µM
4,NC1(c2cc3ccccc3s2)CCCC1,> 100 µM
5,C/C(CCn1[nH]c(=O)ccc1=O)=N\NC(=O)C(=O)NN,> 100 µM
6,Cc1ccc(-c2csc(=Nc3ccccc3)n2NC(=O)c2ccncc2)cc1,> 100 µM

# Test system: A498 renal
# Assay: growth of human tumour cells (NCI), 48 h
row,Compound,TGI
1,O=C(/C=C/c1ccccc1)C[C@@H](O)C[C@@H]1CC=CC(=O)O1,30.9 µM
2,Cc1ccc(/C=C/C(=O)c2cccc3ccccc23)cc1,27.4 µM
3,N#C/C(=C1/Sc2c(nc[nH]c2=O)N1c1ccccc1)c1nc2ccccc2[nH]1,> 100 µM
4,C=CC[C@H](C[C@H](C[C@H](C[C@H](C[C@H](C[C@H](C[C@H](C[C@H](C[C@H](C[C@H](CCCCC)OC)OC)OC)OC)OC)OC)OC)OC)OC)OC,> 100 µM
5,NC1(c2cc3ccccc3s2)CCCC1,> 100 µM
6,C/C(CCn1[nH]c(=O)ccc1=O)=N\NC(=O)C(=O)NN,> 100 µM
7,Cc1ccc(-c2csc(=Nc3ccccc3)n2NC(=O)c2ccncc2)cc1,> 100 µM

# Test system: A549 NSCLC
# Assay: growth of human tumour cells (NCI), 48 h
row,Compound,TGI
1,O=C(/C=C/c1ccccc1)C[C@@H](O)C[C@@H]1CC=CC(=O)O1,52.2 µM
2,Cc1ccc(/C=C/C(=O)c2cccc3ccccc23)cc1,43.2 µM
3,N#C/C(=C1/Sc2c(nc[nH]c2=O)N1c1ccccc1)c1nc2ccccc2[nH]1,> 100 µM
4,C=CC[C@H](C[C@H](C[C@H](C[C@H](C[C@H](C[C@H](C[C@H](C[C@H](C[C@H](C[C@H](CCCCC)OC)OC)OC)OC)OC)OC)OC)OC)OC)OC,> 100 µM
5,NC1(c2cc3ccccc3s2)CCCC1,> 100 µM
6,C/C(CCn1[nH]c(=O)ccc1=O)=N\NC(=O)C(=O)NN,> 100 µM
7,Cc1ccc(-c2csc(=Nc3ccccc3)n2NC(=O)c2ccncc2)cc1,> 100 µM

# Test system: ACHN renal
# Assay: growth of human tumour cells (NCI), 48 h
row,Compound,TGI
1,O=C(/C=C/c1ccccc1)C[C@@H](O)C[C@@H]1CC=CC(=O)O1,30.5 µM
2,Cc1ccc(/C=C/C(=O)c2cccc3ccccc23)cc1,30.7 µM
3,N#C/C(=C1/Sc2c(nc[nH]c2=O)N1c1ccccc1)c1nc2ccccc2[nH]1,> 100 µM
4,C=CC[C@H](C[C@H](C[C@H](C[C@H](C[C@H](C[C@H](C[C@H](C[C@H](C[C@H](C[C@H](CCCCC)OC)OC)OC)OC)OC)OC)OC)OC)OC)OC,> 100 µM
5,NC1(c2cc3ccccc3s2)CCCC1,> 100 µM
6,C/C(CCn1[nH]c(=O)ccc1=O)=N\NC(=O)C(=O)NN,> 100 µM
7,Cc1ccc(-c2csc(=Nc3ccccc3)n2NC(=O)c2ccncc2)cc1,> 100 µM

# Test system: BT-549 breast
# Assay: growth of human tumour cells (NCI), 48 h
row,Compound,TGI
1,O=C(/C=C/c1ccccc1)C[C@@H](O)C[C@@H]1CC=CC(=O)O1,27.7 µM
2,NC1(c2cc3ccccc3s2)CCCC1,> 100 µM
3,Cc1ccc(-c2csc(=Nc3ccccc3)n2NC(=O)c2ccncc2)cc1,> 91.8 µM

# Test system: CAKI-1 renal
# Assay: growth of human tumour cells (NCI), 48 h
row,Compound,TGI
1,O=C(/C=C/c1ccccc1)C[C@@H](O)C[C@@H]1CC=CC(=O)O1,27.6 µM
2,Cc1ccc(/C=C/C(=O)c2cccc3ccccc23)cc1,32.8 µM
3,N#C/C(=C1/Sc2c(nc[nH]c2=O)N1c1ccccc1)c1nc2ccccc2[nH]1,> 100 µM
4,C=CC[C@H](C[C@H](C[C@H](C[C@H](C[C@H](C[C@H](C[C@H](C[C@H](C[C@H](C[C@H](CCCCC)OC)OC)OC)OC)OC)OC)OC)OC)OC)OC,> 100 µM
5,NC1(c2cc3ccccc3s2)CCCC1,> 100 µM
6,C/C(CCn1[nH]c(=O)ccc1=O)=N\NC(=O)C(=O)NN,> 100 µM
7,Cc1ccc(-c2csc(=Nc3ccccc3)n2NC(=O)c2ccncc2)cc1,> 100 µM

# Test system: CCRF-CEM leukemia
# Assay: growth of human tumour cells (NCI), 48 h
row,Compound,TGI
1,O=C(/C=C/c1ccccc1)C[C@@H](O)C[C@@H]1CC=CC(=O)O1,5.12 µM
2,Cc1ccc(/C=C/C(=O)c2cccc3ccccc23)cc1,67 µM
3,N#C/C(=C1/Sc2c(nc[nH]c2=O)N1c1ccccc1)c1nc2ccccc2[nH]1,> 100 µM
4,C=CC[C@H](C[C@H](C[C@H](C[C@H](C[C@H](C[C@H](C[C@H](C[C@H](C[C@H](C[C@H](CCCCC)OC)OC)OC)OC)OC)OC)OC)OC)OC)OC,> 100 µM
5,NC1(c2cc3ccccc3s2)CCCC1,42.3 µM
6,C/C(CCn1[nH]c(=O)ccc1=O)=N\NC(=O)C(=O)NN,> 100 µM
7,Cc1ccc(-c2csc(=Nc3ccccc3)n2NC(=O)c2ccncc2)cc1,> 67.5 µM

# Test system: COLO 205 colon
# Assay: growth of human tumour cells (NCI), 48 h
row,Compound,TGI
1,O=C(/C=C/c1ccccc1)C[C@@H](O)C[C@@H]1CC=CC(=O)O1,17.8 µM
2,Cc1ccc(/C=C/C(=O)c2cccc3ccccc23)cc1,56.4 µM
3,N#C/C(=C1/Sc2c(nc[nH]c2=O)N1c1ccccc1)c1nc2ccccc2[nH]1,> 100 µM
4,C=CC[C@H](C[C@H](C[C@H](C[C@H](C[C@H](C[C@H](C[C@H](C[C@H](C[C@H](C[C@H](CCCCC)OC)OC)OC)OC)OC)OC)OC)OC)OC)OC,> 100 µM
5,NC1(c2cc3ccccc3s2)CCCC1,43.1 µM
6,C/C(CCn1[nH]c(=O)ccc1=O)=N\NC(=O)C(=O)NN,> 100 µM
7,Cc1ccc(-c2csc(=Nc3ccccc3)n2NC(=O)c2ccncc2)cc1,82.5 µM

# Test system: DLD-1 colon
# Assay: growth of human tumour cells (NCI), 48 h
row,Compound,TGI
1,N#C/C(=C1/Sc2c(nc[nH]c2=O)N1c1ccccc1)c1nc2ccccc2[nH]1,> 100 µM
2,C=CC[C@H](C[C@H](C[C@H](C[C@H](C[C@H](C[C@H](C[C@H](C[C@H](C[C@H](C[C@H](CCCCC)OC)OC)OC)OC)OC)OC)OC)OC)OC)OC,> 100 µM
3,C/C(CCn1[nH]c(=O)ccc1=O)=N\NC(=O)C(=O)NN,> 100 µM

# Test system: DMS 114 small cell lung
# Assay: growth of human tumour cells (NCI), 48 h
row,Compound,TGI
1,N#C/C(=C1/Sc2c(nc[nH]c2=O)N1c1ccccc1)c1nc2ccccc2[nH]1,> 100 µM
2,C=CC[C@H](C[C@H](C[C@H](C[C@H](C[C@H](C[C@H](C[C@H](C[C@H](C[C@H](C[C@H](CCCCC)OC)OC)OC)OC)OC)OC)OC)OC)OC)OC,> 100 µM

# Test system: DMS 273 small cell lung
# Assay: growth of human tumour cells (NCI), 48 h
row,Compound,TGI
1,Cc1ccc(/C=C/C(=O)c2cccc3ccccc23)cc1,47.2 µM
2,N#C/C(=C1/Sc2c(nc[nH]c2=O)N1c1ccccc1)c1nc2ccccc2[nH]1,> 100 µM
3,C=CC[C@H](C[C@H](C[C@H](C[C@H](C[C@H](C[C@H](C[C@H](C[C@H](C[C@H](C[C@H](CCCCC)OC)OC)OC)OC)OC)OC)OC)OC)OC)OC,> 100 µM
4,C/C(CCn1[nH]c(=O)ccc1=O)=N\NC(=O)C(=O)NN,> 100 µM

# Test system: DU-145 prostate
# Assay: growth of human tumour cells (NCI), 48 h
row,Compound,TGI
1,O=C(/C=C/c1ccccc1)C[C@@H](O)C[C@@H]1CC=CC(=O)O1,> 60.5 µM
2,NC1(c2cc3ccccc3s2)CCCC1,> 100 µM
3,Cc1ccc(-c2csc(=Nc3ccccc3)n2NC(=O)c2ccncc2)cc1,> 100 µM

# Test system: EKVX NSCLC
# Assay: growth of human tumour cells (NCI), 48 h
row,Compound,TGI
1,O=C(/C=C/c1ccccc1)C[C@@H](O)C[C@@H]1CC=CC(=O)O1,73.1 µM
2,Cc1ccc(/C=C/C(=O)c2cccc3ccccc23)cc1,34 µM
3,N#C/C(=C1/Sc2c(nc[nH]c2=O)N1c1ccccc1)c1nc2ccccc2[nH]1,> 100 µM
4,C=CC[C@H](C[C@H](C[C@H](C[C@H](C[C@H](C[C@H](C[C@H](C[C@H](C[C@H](C[C@H](CCCCC)OC)OC)OC)OC)OC)OC)OC)OC)OC)OC,> 100 µM
5,NC1(c2cc3ccccc3s2)CCCC1,> 100 µM
6,C/C(CCn1[nH]c(=O)ccc1=O)=N\NC(=O)C(=O)NN,> 100 µM
7,Cc1ccc(-c2csc(=Nc3ccccc3)n2NC(=O)c2ccncc2)cc1,> 100 µM

# Test system: HCC-2998 colon
# Assay: growth of human tumour cells (NCI), 48 h
row,Compound,TGI
1,O=C(/C=C/c1ccccc1)C[C@@H](O)C[C@@H]1CC=CC(=O)O1,15.7 µM
2,Cc1ccc(/C=C/C(=O)c2cccc3ccccc23)cc1,37.7 µM
3,N#C/C(=C1/Sc2c(nc[nH]c2=O)N1c1ccccc1)c1nc2ccccc2[nH]1,> 100 µM
4,C=CC[C@H](C[C@H](C[C@H](C[C@H](C[C@H](C[C@H](C[C@H](C[C@H](C[C@H](C[C@H](CCCCC)OC)OC)OC)OC)OC)OC)OC)OC)OC)OC,> 100 µM
5,NC1(c2cc3ccccc3s2)CCCC1,46.1 µM
6,C/C(CCn1[nH]c(=O)ccc1=O)=N\NC(=O)C(=O)NN,> 100 µM
7,Cc1ccc(-c2csc(=Nc3ccccc3)n2NC(=O)c2ccncc2)cc1,> 100 µM

# Test system: HCT-116 colon
# Assay: growth of human tumour cells (NCI), 48 h
row,Compound,TGI
1,O=C(/C=C/c1ccccc1)C[C@@H](O)C[C@@H]1CC=CC(=O)O1,6.38 µM
2,Cc1ccc(/C=C/C(=O)c2cccc3ccccc23)cc1,24.6 µM
3,N#C/C(=C1/Sc2c(nc[nH]c2=O)N1c1ccccc1)c1nc2ccccc2[nH]1,> 100 µM
4,C=CC[C@H](C[C@H](C[C@H](C[C@H](C[C@H](C[C@H](C[C@H](C[C@H](C[C@H](C[C@H](CCCCC)OC)OC)OC)OC)OC)OC)OC)OC)OC)OC,> 100 µM
5,NC1(c2cc3ccccc3s2)CCCC1,> 100 µM
6,Cc1ccc(-c2csc(=Nc3ccccc3)n2NC(=O)c2ccncc2)cc1,> 100 µM

# Test system: HCT-15 colon
# Assay: growth of human tumour cells (NCI), 48 h
row,Compound,TGI
1,O=C(/C=C/c1ccccc1)C[C@@H](O)C[C@@H]1CC=CC(=O)O1,25.4 µM
2,Cc1ccc(/C=C/C(=O)c2cccc3ccccc23)cc1,35.3 µM
3,N#C/C(=C1/Sc2c(nc[nH]c2=O)N1c1ccccc1)c1nc2ccccc2[nH]1,> 100 µM
4,NC1(c2cc3ccccc3s2)CCCC1,> 100 µM
5,C/C(CCn1[nH]c(=O)ccc1=O)=N\NC(=O)C(=O)NN,> 100 µM
6,Cc1ccc(-c2csc(=Nc3ccccc3)n2NC(=O)c2ccncc2)cc1,> 100 µM

# Test system: HL-60(TB) leukemia
# Assay: growth of human tumour cells (NCI), 48 h
row,Compound,TGI
1,O=C(/C=C/c1ccccc1)C[C@@H](O)C[C@@H]1CC=CC(=O)O1,5.06 µM
2,Cc1ccc(/C=C/C(=O)c2cccc3ccccc23)cc1,28.3 µM
3,N#C/C(=C1/Sc2c(nc[nH]c2=O)N1c1ccccc1)c1nc2ccccc2[nH]1,> 100 µM
4,C=CC[C@H](C[C@H](C[C@H](C[C@H](C[C@H](C[C@H](C[C@H](C[C@H](C[C@H](C[C@H](CCCCC)OC)OC)OC)OC)OC)OC)OC)OC)OC)OC,> 100 µM
5,NC1(c2cc3ccccc3s2)CCCC1,> 100 µM
6,C/C(CCn1[nH]c(=O)ccc1=O)=N\NC(=O)C(=O)NN,> 100 µM
7,Cc1ccc(-c2csc(=Nc3ccccc3)n2NC(=O)c2ccncc2)cc1,> 69.2 µM
